In patent publication US11904051B2, “Shear stress sensitive liposomes” (Universität Basel, priority 2018, dated 2024):
Values belong to the molecule of their own block, whether it stands above or below them.

Experiments:
[1] = Small-angle neutron scattering (SANS) of liposomes as a function of temperature; type: physicochemical; design: key to Eccentricity: ε = c/R axis ratio; <1 oblate, 1 spherical, >1 prolate
Description: In order to determine the structural parameters, including the bilayer thickness of the selected liposomal formulations, a suitable model for data fitting has to be identified. […] The structure factor was fitted using the sticky hard sphere model (Baxter et al., The Journal of Chemical Physics 1968, 49 (6), 2770-2774; Mays, Langmuir 1989, 5, 422-428). In order to adjust the form factor to the overall shape of the liposomes, an ellipsoidal shell model with a homogeneous cross-section (Guinier, Annales de Physique, 1939; pp 161-237) was applied. The elliptical shell model is defined by three orthogonal axes with lengths a=R, b=R and c=εR, along with eccentricity ε>0, (ε<1: oblate, ε=1: spherical, ε>1: prolate). The model also accounts for variations in bilayer thickness and liposome size. As the scattering data of the Pad-PC-Pad liposomes at the temperature of 35° C. could not be approximated satisfactorily by means of the ellipsoidal shell, the inventors included disks with a homogeneous cross-section—an approach motivated by the cryo-TEM results. Together with the experimental data of the Pad-PC-Pad liposomes at three selected temperatures, the obtained fits are represented in FIG. 23.
The inventors recognised that the inhomogeneity of the liposomal formulations, except for Pad-PC-Pad, concerning the shape and size of the artificial lipids in this study only allows for the reasonable fitting of the q-range, which corresponds to bilayer thickness. For this purpose, the inventors applied an extended Guinier law (Hjelm et al., The Journal of Physical Chemistry B 2000, 104 (2), 197-211; Fratzl, Journal of Statistical Physics 1994, 77 (1-2), 125-143), which yields the thickness of the bilayer. To account for possible multi-lamellarity, the inventors included a para-crystalline stacking model (Schwartz et al., Biophysical journal 1975, 15 (12), 1201-1233; FruÈhwirth et al., Journal of Applied Crystallography 2004, 37 (5), 703-710) as a structure factor.
SANS measurements were performed at the SANS-I beamline at the Swiss Spallation Neutron Source SINQ facility (Paul Scherrer Institute, Villigen, Switzerland). The samples were loaded into 2 mm-path length, boron-free quartz glass cells and mounted in a temperature-controlled holder. This system allows for controlling the temperature of the specimen with an accuracy better than 1 K. The liposomal suspensions were measured between 22 and 42° C. in 3 to 4 K steps. Subsequently, the suspensions were cooled down to room temperature (22° C.) and measured again. Three detector distances, i.e. 1.6, 6.0 and 18.0 m, were used to collect data over the range of scattering vectors 0.01 nm^−1<q<10 nm^−1 at the neutron wavelengths (A) […]. Data were collected with a two-dimensional ^3He-detector with an array of 128×128 pixels and reduced to one-dimensional I(q) scattering curves, thus radially averaging the two-dimensional images. The data were corrected for transmission, background scattering and detector efficiency according to a standard procedure using the BerSANS software package (Keiderling, Applied Physics A 2002, 74 (1), s1455-s1457; Strunz et al., Journal of Applied Crystallography 2000, 33 (3 Part 1), 829-833).
The SANS data were analysed using SASfit software (Breßler et al., Journal of Applied Crystallography 2015, 48 (5), 1587-1598) and corresponding models. A Pad-PC-Pad sample was fitted over the entire measured q-range, whereas we restricted the fit for the other samples to the q-range, which corresponds to lipid bilayer thickness. For Pad-PC-Pad, the inventors used an ellipsoidal shell model with a homogeneous cross-section (Guinier, Annales de Physique, 1939; pp 161-237) and size distributions in terms of both thickness and radius. […]

[2] = Cryo-TEM of liposomal suspensions of the SANS study; type: physicochemical
Experimental: The liposomal suspensions were diluted at a ratio of 1:2 with D2O, to a final concentration of 5 mg/mL. Next, 4 μL aliquots of each suspension were adsorbed onto a holey carbon-coated grid (Lacey, Tedpella, USA), blotted with Whatman 1 filter paper and vitrified into liquid ethane at a temperature of −178° C., using a Leica GP plunger (Leica, Austria). Frozen grids were transferred onto a Talos electron microscope (Thermo Fisher, USA), using a Gatan 626 cryo-holder. Electron micrographs were recorded at an accelerating voltage of 200 kV and a nominal magnification of 45,000×, using a low-dose system (20 e^−/Å^2) and keeping the sample at liquid nitrogen temperature. Micrographs were recorded on the CETA camera. Pixel size at the sample level was (3.26 Å)^2.

[3] = 22 ° C. (after cooling down to room temperature)
[4] = 35 ° C., contribution for disks accounted for

- Bilayer thickness ([1]; 22 ° C.): 3.46 ± 1.07 nm
- Eccentricity ([1]; 22 ° C.): 0.35
- Radius ([1]; 22 ° C.): 69.96 ± 19.05 nm
- Bilayer thickness [1, 3]: 4.18 ± 0.70 nm
- Eccentricity [1, 3]: 0.04
- Radius [1, 3]: 70.41 ± 31.77 nm
- Bilayer thickness ([1]; 25 ° C.): 3.38 ± 0.94 nm
- Eccentricity ([1]; 25 ° C.): 0.35
- Radius ([1]; 25 ° C.): 66.22 ± 21.15 nm
- Bilayer thickness ([1]; 28 ° C.): 3.34 ± 0.91 nm
- Eccentricity ([1]; 28 ° C.): 0.32
- Radius ([1]; 28 ° C.): 69.96 ± 16.31 nm
- Bilayer thickness ([1]; 32 ° C.): 3.37 ± 0.89 nm
- Eccentricity ([1]; 32 ° C.): 0.31
- Radius ([1]; 32 ° C.): 69.90 ± 15.93 nm
- Bilayer thickness [1, 4]: 3.42 ± 0.88 nm
- Eccentricity [1, 4]: 0.88
- Radius [1, 4]: 64.91 nm
- Bilayer thickness ([1]; 39 ° C.): 3.37 ± 0.76 nm
- Eccentricity ([1]; 39 ° C.): 0.04
- Radius ([1]; 39 ° C.): 71.96 ± 5.40 nm
- Bilayer thickness ([1]; 42 ° C.): 3.57 ± 0.74 nm
- Eccentricity ([1]; 42 ° C.): 0.05
- Radius ([1]; 42 ° C.): 71.35 ± 5.01 nm
- increase in bilayer thickness after the heating cycle ([1]; temperature cycle to 42° C. including cooling to room temperature): 21%
- diameter of flattened liposomes and/or bicelles (cryo-TEM) ([2]; heated above Tm): about 50 nm
- average size of liposomes estimated from cryo-TEM images ([2]; not heated above transition temperature): 92±14 nm
Structure (SMILES): CCCCCCCCCCCCCCCC(=O)NCC(CNC(=O)CCCCCCCCCCCCCCC)OP(=O)([O-])OCC[N+](C)(C)C [Pad-PC-Pad, 1,3-palmitoylamido-1,3-deoxy-sn-glycero-2-phosphatidylcholine]

- most probable bilayer thickness ([1]; 22 ° C.): 4.59 nm
- most probable bilayer thickness [1, 3]: 4.67 nm
- most probable bilayer thickness ([1]; 25 ° C.): 4.58 nm
- most probable bilayer thickness ([1]; 28 ° C.): 4.62 nm
- most probable bilayer thickness ([1]; 32 ° C.): 4.61 nm
- most probable bilayer thickness ([1]; 35 ° C.): 4.61 nm
- most probable bilayer thickness ([1]; 39 ° C.): 4.65 nm
- most probable bilayer thickness ([1]; 42 ° C.): 4.65 nm
- mean size of liposomes derived from cryo-TEM images ([2]; after SANS heat treatment and eight months' storage): 87±20 nm
- multi-lamellar liposomes ([2]; determined by cryo-TEM): About 16%
Structure (SMILES): CCCCCCCCCCCCCCCC(=O)OC[C@H](COP(=O)([O-])OCC[N+](C)(C)C)OC(=O)CCCCCCCCCCCCCCC [DPPC, 1,2-dipalmitoyl-sn-glycero-3-phosphocholine]

- most probable bilayer thickness ([1]; 22 ° C.): 4.55 nm
- most probable bilayer thickness [1, 3]: 4.45 nm
- most probable bilayer thickness ([1]; 25 ° C.): 4.57 nm
- most probable bilayer thickness ([1]; 28 ° C.): 4.55 nm
- most probable bilayer thickness ([1]; 32 ° C.): 4.51 nm
- most probable bilayer thickness ([1]; 35 ° C.): 4.45 nm
- most probable bilayer thickness ([1]; 39 ° C.): 4.35 nm
- most probable bilayer thickness ([1]; 42 ° C.): 4.4 nm
- thermal stability of liposomes ([1]; temperature range between 22 and 42° C.): thermally stable up to 42 °C
Structure (SMILES): CCCCCCCCCCCCCCCCC(=O)NCC(CNC(=O)CCCCCCCCCCCCCCCC)OP(=O)([O-])OCC[N+](C)(C)C [Rad-PC-Rad, 1,3-diheptadecanamidopropan-2-yl (2-(trimethylammonio)ethyl) phosphate]
